# According to patent US8673617B2, “Culture medium for Haemophilus influenzae type B” (Sanofi Pasteur SA, priority 2007, dated 2014):
# Key:
# [1] = test system: Haemophilus influenzae serotype b; assay: PRP production in liquid garden pea peptone-based culture medium as a function of heme source (sandwich ELISA on supernatant); type: cell-based; conditions: for Mean PRP / PRP in mg/l Assay 1 / PRP in mg/l Assay 2: garden pea medium, 16 h
# Procedure: The production of PRP obtained after 16 hours of bacterial culture in liquid plant peptones-based culture media in which the heme source was either hemin or protoporphyrin IX of animal origin (porcine protoporphyrin) in disodium salt form, or protoporphyrin IX of purely synthetic origin in disodium salt form was compared. […] An enzymatic hydrolysate of garden pea peptone provided by Kerry (Hy pea 7404) and a wheat peptone provided by Organotechnie (19559) were tested at a concentration in the culture medium equivalent to 0.87 g/l of protein nitrogen. By reference to the current methods for the production of PRP, PRP production was also measured in a medium that contains a peptone of animal origin, such as casein hydrolysate (HAC) provided by Solabia at a concentration in the medium equivalent to 0.87 g/l with increased concentrations of hemin (see table III).
# (§1) 1.1) Preparation of the Media • 1.1.1. Stock solution of β-NAD (Fluka) at 1 g/l in water which was ultrafiltered and then sterilized by filtration through 0.22 μm. • 1.1.2. Stock solution of hemin (Sigma) at 0.25 g/l in water was ultrafiltered, comprising 5 ml of 25% aqueous ammonia (Cooper) to aid dissolution. The stock solution was sterilized by filtration through 0.22 μm. • 1.1.3. Stock solution of porcine protoporphyrin IX (Sigma) at 0.25 g/l in ultrafiltered water comprising 5 ml of 25% aqueous ammonia (Cooper) in order to facilitate the dissolution. The stock solution was sterilized by filtration through 0.22 μm. • 1.1.4. Stock solution of synthetic protoporphyrin IX at 0.25 g/l in ultrafiltered water comprising 5 ml of 25% aqueous ammonia (Cooper) in order to facilitate the dissolution. The stock solution was also heated to 80° C. in a water bath with stirring in order to complete the dissolution before being sterilized by filtration through 0.22 μm. The protoporphyrin IX, in disodium salt form, was synthesized according to the method described in the U.S. provisional patent application Ser. No. 12/057,574, filed Mar. 28, 2008 and application Ser. No. 60/943,735 and filed on Jun. 13, 2007 using the steps which are described in scheme 2. • The stock solutions of hemin and protoporphyrin IX were checked for their respective contents of active compounds after sterilizing filtration. The protoporphyrin IX and hemin contents were determined by Reversed Phase High Performance Liquid Chromatography (RP-HPLC). The chromatographic chain comprises a twin head pump module allowing the formation of a binary gradient, a programmable automatic injector, a diode array UV detector and a chromatographic column of the type Synergi 4 μm, Polar RP-80A (150×4.6) mm, ref 00F-4336-E0, Phenomenex. • The stock solution of hemin (Sigma) to be checked after filtration was diluted ⅓ in distilled water. The stock solutions of porcine protoporphyrin IX (Sigma) and of synthetic protoporphyrin IX to be checked after filtration were diluted ¼ in distilled water. In parallel, a calibration series was prepared in ammoniated water ranging from 0.025 g/l to 0.125 g/l of protoporphyrin IX from porcine protoporphyrin IX from Sigma (ref: 25838-5) and a calibration series ranging from 0.050 g/l to 0.150 g/l of hemin from hemin from Sigma (ref: H5533-256). The samples to be checked and the various solutions of the calibration series were injected in a volume of 20 μl (for the hemin solutions and samples) and of 5 μl (for the protoporphyrin IX solutions and samples). The initial mobile phase consisting of a volume for volume mixture of acetonitrile and 10 mM KH2PO4 pH 2.5 is set at a flow rate of 1 ml/min. A discontinuous gradient was then produced from this mobile phase in order to separate the molecules of interest which are detected at a wavelength of 400 nm. […]
# [2] = test system: Haemophilus influenzae serotype b; assay: PRP production in liquid casein hydrolysate (HAC) medium with increasing hemin (sandwich ELISA on supernatant); type: cell-based; conditions: for Mean PRP / PRP in mg/l Assay 1 / PRP in mg/l Assay 2: HAC medium, 16 h
# Procedure: The production of PRP obtained after 16 hours of bacterial culture in liquid plant peptones-based culture media in which the heme source was either hemin or protoporphyrin IX of animal origin (porcine protoporphyrin) in disodium salt form, or protoporphyrin IX of purely synthetic origin in disodium salt form was compared. The hemin and protoporphyrin IX concentration ranges in the culture media varied from about 0.010 g/l to about 2 g/l so as to obtain PRP titration curves as a function of the heme source tested and as a function of the plant peptone tested. An enzymatic hydrolysate of garden pea peptone provided by Kerry (Hy pea 7404) and a wheat peptone provided by Organotechnie (19559) were tested at a concentration in the culture medium equivalent to 0.87 g/l of protein nitrogen. By reference to the current methods for the production of PRP, PRP production was also measured in a medium that contains a peptone of animal origin, such as casein hydrolysate (HAC) provided by Solabia at a concentration in the medium equivalent to 0.87 g/l with increased concentrations of hemin (see table III).
# as §1
structure (smiles),measurement,setting,value
"C=CC1=C(C)c2cc3[n-]c(cc4nc(cc5[n-]c(cc1n2)c(C)c5CCC(=O)O)C(CCC(=O)O)=C4C)c(C)c3C=C.[Cl-].[Fe+3] [Hemin, hemin, reference compound]",Mean PRP,[1]; hemin 11.8 μg/l,4 mg/L
same,PRP in mg/l Assay 1,[1]; hemin 11.8 μg/l,3.82 mg/L
same,PRP in mg/l Assay 2,[1]; hemin 11.8 μg/l,3.79 mg/L
same,Mean PRP,[1]; hemin 59 μg/l,7 mg/L
same,PRP in mg/l Assay 1,[1]; hemin 59 μg/l,7.61 mg/L
same,PRP in mg/l Assay 2,[1]; hemin 59 μg/l,7.13 mg/L
same,Mean PRP,[1]; hemin 118 μg/l,20 mg/L
same,PRP in mg/l Assay 1,[1]; hemin 118 μg/l,23.4 mg/L
same,PRP in mg/l Assay 2,[1]; hemin 118 μg/l,17.5 mg/L
same,Mean PRP,[1]; hemin 295 μg/l,48 mg/L
same,PRP in mg/l Assay 1,[1]; hemin 295 μg/l,51.2 mg/L
same,PRP in mg/l Assay 2,[1]; hemin 295 μg/l,45.4 mg/L
same,Mean PRP,[1]; hemin 590 μg/l,84 mg/L
same,PRP in mg/l Assay 1,[1]; hemin 590 μg/l,95.4 mg/L
same,PRP in mg/l Assay 2,[1]; hemin 590 μg/l,72.9 mg/L
same,Mean PRP,[1]; hemin 1180 μg/l,233 mg/L
same,PRP in mg/l Assay 1,[1]; hemin 1180 μg/l,234 mg/L
same,PRP in mg/l Assay 2,[1]; hemin 1180 μg/l,232 mg/L
same,Mean PRP,[1]; hemin 1770 μg/l,210 mg/L
same,PRP in mg/l Assay 1,[1]; hemin 1770 μg/l,209 mg/L
same,PRP in mg/l Assay 2,[1]; hemin 1770 μg/l,211 mg/L
same,Mean PRP,[1]; hemin 2360 μg/l,494 mg/L
same,PRP in mg/l Assay 1,[1]; hemin 2360 μg/l,505 mg/L
same,PRP in mg/l Assay 2,[1]; hemin 2360 μg/l,482 mg/L
same,Mean PRP,[1]; hemin 3540 μg/l,142 mg/L
same,PRP in mg/l Assay 1,[1]; hemin 3540 μg/l,129 mg/L
same,PRP in mg/l Assay 2,[1]; hemin 3540 μg/l,154 mg/L
same,heme source concentration required for optimum / maximum PRP production,[1]; garden pea peptone medium (FIG. 1),about 2500 μg/l
same,production of PRP (in words),"[1]; plant peptone medium, heme source at 10 μg/l",insignificant
same,production of PRP,"[1]; plant peptone medium, heme source at 50 μg/l (FIGS. 1 and 2)",≤ 10 µg/L
same,Mean PRP,[2]; hemin 11.8 μg/l,16.8 mg/L
same,PRP in mg/l Assay 1,[2]; hemin 11.8 μg/l,18.9 mg/L
same,PRP in mg/l Assay 2,[2]; hemin 11.8 μg/l,14.7 mg/L
same,Mean PRP,[2]; hemin 59 μg/l,80.2 mg/L
same,PRP in mg/l Assay 1,[2]; hemin 59 μg/l,82.7 mg/L
same,PRP in mg/l Assay 2,[2]; hemin 59 μg/l,77.7 mg/L
same,Mean PRP,[2]; hemin 118 μg/l,199.5 mg/L
same,PRP in mg/l Assay 1,[2]; hemin 118 μg/l,183 mg/L
same,PRP in mg/l Assay 2,[2]; hemin 118 μg/l,216 mg/L
same,Mean PRP,[2]; hemin 295 μg/l,314.5 mg/L
same,PRP in mg/l Assay 1,[2]; hemin 295 μg/l,325 mg/L
same,PRP in mg/l Assay 2,[2]; hemin 295 μg/l,304 mg/L
same,Mean PRP,[2]; hemin 590 μg/l,410.5 mg/L
same,PRP in mg/l Assay 1,[2]; hemin 590 μg/l,381 mg/L
same,PRP in mg/l Assay 2,[2]; hemin 590 μg/l,440 mg/L
same,Mean PRP,[2]; hemin 1180 μg/l,414.5 mg/L
same,PRP in mg/l Assay 1,[2]; hemin 1180 μg/l,424 mg/L
same,PRP in mg/l Assay 2,[2]; hemin 1180 μg/l,405 mg/L
same,Mean PRP,[2]; hemin 1770 μg/l,461.5 mg/L
same,PRP in mg/l Assay 1,[2]; hemin 1770 μg/l,404 mg/L
same,PRP in mg/l Assay 2,[2]; hemin 1770 μg/l,519 mg/L
same,Mean PRP,[2]; hemin 2360 μg/l,464.5 mg/L
same,PRP in mg/l Assay 1,[2]; hemin 2360 μg/l,439 mg/L
same,PRP in mg/l Assay 2,[2]; hemin 2360 μg/l,490 mg/L
same,hemin concentration to obtain about 400 mg/l of PRP,[2]; casein hydrolysate and hemin-based medium,at least 500 μg/l
